≈ marks a conversion by molar mass, not a printed value. Where “and” joins values, the source holds several entries; their conditions need not be identical. Identical values can stand only once. Like-named read-outs stand apart in the source and are kept apart here. Where a SMILES comes first, the peptide text is derived from it. [ ]: non-standard residue; d: D form. PhLac = O=C(O)[C@@H](O)Cc1ccccc1; NMeA = CN[C@@H](C)C(=O)O

As a reminder, the IC50 is the concentration needed to halve the response being measured. By MIC is commonly meant the lowest concentration that inhibits growth of the organism.

Assay [1] concerns Escherichia coli (DSM 1116). Nature of the assay: Antimicrobial assay (MIC). It counts as cell-based. More on the design: key to MIC (µg/mL): -: no inhibition observed. On the procedure:
(§1) The antimicrobial activity of the isolated secondary metabolites was determined using our established protocol, against clinically relevant microorganisms obtained from the German Collection of Microorganisms and Cell Cultures (DSMZ, Braunschweig, Germany). These included Staphylococcus aureus (DSM 346), Bacillus subtilis (DSM 10), Acinetobacter baumanii (DSM 30008), Escherichia coli (DSM 1116), Chromobacterium violaceum (DSM 30191), Pseudomonas aeruginosa (PA14), Mycolicibacterium smegmatis (ATCC 700084), Candida albicans (DSM 1665), Mucor hiemalis (DSM 2656), Rhodotorula glutinis (DSM 10134), Schizosaccharomyces pombe (DSM 70572) and Pichia anomala (DSM 6766). Nystatin was used as an antifungal positive control whereas oxytetracycline, ciprofloxacin, gentamicin, and kanamycin were used as positive controls against Gram-positive and Gram-negative bacteria.

Assay [2] has as its system Chromobacterium violaceum (DSM 30191). As to the kind of experiment: Antimicrobial assay (MIC). Set-up: key to MIC (µg/mL): -: no inhibition observed. It counts as cell-based. On the procedure: as §1
Assay [3] relates to Mucor hiemalis (DSM 2656). Nature of the assay: Antimicrobial assay (MIC). It counts as cell-based. More on the design: key to MIC (µg/mL): -: no inhibition observed. On the procedure: as §1
Assay [4] concerns Mycobacterium smegmatis (ATCC 700084). Nature of the assay: Antimicrobial assay (MIC). It counts as cell-based. Set-up: key to MIC (µg/mL): -: no inhibition observed. On the procedure:
as §1

For assay [5], the system named is Bacillus subtilis (DSM 10). Nature of the assay: Antimicrobial assay (MIC). It counts as cell-based. Set-up: key to MIC (µg/mL): -: no inhibition observed. As for the experimental part: as §1
Assay [6] relates to Schizosaccharomyces pombe (DSM 70572). As to the kind of experiment: Antimicrobial assay (MIC). It counts as cell-based. Set-up: key to MIC (µg/mL): -: no inhibition observed. As for the experimental part:
as §1

For assay [7], the system named is Rhodotorula glutinis (DSM 10134). Nature of the assay: Antimicrobial assay (MIC). It counts as cell-based. Set-up: key to MIC (µg/mL): -: no inhibition observed. On the procedure: as §1
Assay [8] has as its system Staphylococcus aureus (DSM 346). Nature of the assay: Antimicrobial assay (MIC). More on the design: key to MIC (µg/mL): -: no inhibition observed. It counts as cell-based. On the procedure:
as §1

The test system of assay [9] is Pichia anomala (DSM 6766). As to the kind of experiment: Antimicrobial assay (MIC). It counts as cell-based. More on the design: key to MIC (µg/mL): -: no inhibition observed. As for the experimental part: as §1
Assay [10] concerns Pseudomonas aeruginosa (PA14). Nature of the assay: Antimicrobial assay (MIC). It counts as cell-based. More on the design: key to MIC (µg/mL): -: no inhibition observed. As for the experimental part: as §1
Assay [11] concerns Candida albicans (DSM 1665). Nature of the assay: Antimicrobial assay (MIC). It counts as cell-based. More on the design: key to MIC (µg/mL): -: no inhibition observed. On the procedure: as §1
Assay [12] has as its system KB3.1 (cervix) endocervical adenocarcinoma. It counts as cell-based, human. On the procedure:
(§2) In vitro cytotoxic activity of the isolated compounds was tested by applying the MTT (3-(4,5-dimethylthiayol-2-yl)-2,5-diphenyltetrazolium bromide) assay as previously reported. The mammalian cell lines used in the tests were sourced from DSMZ and included mouse fibroblasts (L929) and endocervical adenocarcinoma (KB3.1), human lung carcinoma (A549), breast adenocarcinoma (MCF-7), human ovarian cancer (SKOV-3), prostate carcinoma (PC-3), and epidermoid carcinoma cells (A431).

Assay [13] has as its system Acinetobacter baumanii (DSM 30008). As to the kind of experiment: Antimicrobial assay (MIC). It counts as cell-based. Set-up: key: -: no inhibition observed. As for the experimental part:
as §1

The test system of assay [14] is L929 (murine) mouse fibroblasts. Nature of the assay: Cytotoxicity (MTT) assay. It counts as cell-based. On the procedure: as §2
The subject of another assay is Caenorhabditis elegans. As to the kind of experiment: Nematicidal activity assay. It counts as in vivo. To be noted: 18 h. On the procedure: The nematicidal activity assay was conducted following a previously described procedure with slight modifications. C. elegans was cultured on nematode growth medium (NGM) containing 3 g NaCl, 20 g agar, 2.5 g peptone, 1 mL 1 M CaCl2, 25 mL of 1 M (pH 6.0) KPO4, 1 mL 1 M MgSO4, and 1 mL cholesterol (5 mg/mL in ethanol) per liter of medium. Plates were coated with Escherichia coli strain OP50, which served as the food source for nematodes. Synchronization of the nematode population was performed using a high egg density plate (~120 h). The plate was rinsed three times with 4 mL of 0.9% NaCl solution and then transferred to a 15 mL falcon tube. The nematode suspension was centrifuged at 1000 rpm for 3 min, and the supernatant was discarded. This procedure was repeated until a clear nematode suspension was obtained. After the last washing step, 2 mL of the suspension was mixed with 5 mL of bleaching solution (1 mL sodium hypochlorite solution, 0.5 mL 5 M NaOH, and 3.5 mL Milli-Q water). The solution was gently shaken for approximately 5 min to break down the nematode tissue, and monitored under the microscope. The reaction was stopped by adding 7 mL 0.9% NaCl solution when traces of adults were still visible. Subsequently, the suspension was centrifuged at 2500 rpm for 2 min and washed 3 times as previously described. After the final washing step, the supernatant was removed, and the volume was adjusted to 7 mL with 0.9% NaCl solution. The nematode egg suspension was incubated at 23 °C on a rotary shaker at 80 rpm for 18 h. The hatched nematodes were transferred to a fresh NGM plate supplemented with E.coli OP50. After 50–70 h, the J4 and adult C. elegans were washed from the plate as mentioned above. The nematode concentration was determined and diluted to approximately 1000 nematodes/mL.
Pure compounds were tested at concentrations of 10, 50, and 100 μg/mL in 48-well microtiter plates. The compounds, dissolved in MeOH, were added to the well plate and subsequently dried under nitrogen. After complete evaporation of the solvent, 300 μL of the nematode suspension (1000 nematodes/mL) was added to the compounds. Each treatment was replicated three times. MeOH was used as the negative control while 1 μg/mL Ivermectin served as the positive control. Nematodes were monitored 15 min after inoculation, and the plates were incubated at 24 °C and 150 rpm for 18 h. After incubation, both alive and dead nematodes were counted in three replicates under a stereomicroscope, and the mortality rate was calculated. Erect and non-moving nematodes were considered dead. […] The observed percentage of dead nematodes was corrected by considering the natural mortality observed in the negative control, using the Schneider-Orelli formula [30].

The mark [15] stands for this setting: MTT assay, KB3.1 (cervix), read-out: IC50.
Setting [16] is: 10 µg/mL, J4 and adult C. elegans, 24 °C, corrected by Schneider-Orelli formula vs methanol control, mean ± SD (n ≥ 3), < 0: less active than negative control.
Where [17] appears, read: 50 µg/mL, J4 and adult C. elegans, 24 °C, corrected by Schneider-Orelli formula vs methanol control, mean ± SD (n ≥ 3).
[18] abbreviates: 100 µg/mL, J4 and adult C. elegans, 24 °C, corrected by Schneider-Orelli formula vs methanol control, mean ± SD (n ≥ 3).

Regarding “3S,4S-HMDA-L-Trp^1-L-Trp^2-L-Phe (lariat or depsi) [Compound 3, Beauveriolide U, previously undescribed cyclic tetradepsipeptide, HMDA-Trp-Trp-Phe, C42H49N5O5]”, the “MIC (µg/mL)” value in [1], in assay [2], in [3], in assay [4], in assay [5] and in assay [6] was “-” throughout. Besides, the “MIC (µg/mL)” value in [7], in assay [8], in [9], in assay [10], in [11] and in [13] was “-” throughout. In addition, the IC50 in assay [12] (setting [15]) and in assay [14] was above 35 µM throughout. The “Corrected mortality rate (%)” value was below 0% with Caenorhabditis elegans (setting [16]), 6.0 ± 1.5% in the assay on Caenorhabditis elegans (setting [17]) and 32.1 ± 7.0% in the assay with Caenorhabditis elegans (setting [18]).
With `CC(C)C[C@@H]1NC(=O)[C@H](Cc2ccccc2)OC(=O)[C@H](C)N(C)C(=O)[C@H](CC(C)C)NC(=O)[C@H](Cc2ccccc2)NC(=O)[C@H](C)N(C)C1=O` [Compound 4, Cardinalisamide D] (cyclo([PhLac]L[NMeA]FL[NMeA])), the “MIC (µg/mL)” value in assay [1], in assay [2], in assay [3], in [4], in assay [5] and in [6] was “-” throughout. Further, the “MIC (µg/mL)” value in assay [7], in [8], in assay [9], in assay [10], in assay [11] and in assay [13] was “-” each time. Moreover, the results for the half-maximal inhibitory concentration (IC50) in [12] and in [14] were 36.2 µM and above 35 µM, respectively. Also, the “Corrected mortality rate (%)” value was 13.7 ± 5.2% with Caenorhabditis elegans (setting [16]), 14.2 ± 4.9% in the assay on Caenorhabditis elegans (setting [17]) and 23.4 ± 7.4% with Caenorhabditis elegans (setting [18]).
On to `CNC(C)C1CCC(N)C(OC2C(N)CC(N)C(OC3OCC(C)(O)C(NC)C3O)C2O)O1` (centres unmarked) [Gentamycin, reference compound], for which the MIC in assay [1] (DSM1116) was 0.83 µg/mL (≈ 1.74 µM); in assay [2] (DSM30191), 1.7 µg/mL (≈ 3.56 µM); in assay [8] (DSM346), 0.42 µg/mL (≈ 0.879 µM); in assay [10] it was 0.42 µg/mL (≈ 0.879 µM).
Consider `NC[C@H]1O[C@H](O[C@H]2[C@H](O)[C@@H](O[C@H]3O[C@H](CO)[C@@H](O)[C@H](N)[C@H]3O)[C@H](N)C[C@@H]2N)[C@H](O)[C@@H](O)[C@@H]1O` [Kanamycin, reference compound], for which the “MIC” value in assay [4] is on record as 0.1 µg/mL (≈ 0.206 µM).
Consider `C[C@@H]1[C@H](O)[C@@H](C)/C=C/C=C/CC/C=C/C=C/C=C/C=C/C(O[C@H]2O[C@H](C)[C@@H](O)[C@H](N)[C@@H]2O)CC2O[C@](O)(CC(O)C(O)CCC(O)CC(O)CC(O)CC(=O)O[C@H]1C)CC(O)C2C(=O)O` (some centres unmarked) [Nystatin, reference compound], for which the minimal inhibitory concentration (MIC) is listed as 4.2 µg/mL (≈ 4.54 µM) in assay [3]; 2.1 µg/mL (≈ 2.27 µM) in [6]; 1.0 µg/mL (≈ 1.08 µM) in [7]; 4.2 µg/mL (≈ 4.54 µM) in assay [9]; 2.1 µg/mL (≈ 2.27 µM) in [11].
As to `CN(C)[C@@H]1C(O)=C(C(N)=O)C(=O)[C@@]2(O)C(O)=C3C(=O)c4c(O)cccc4[C@@](C)(O)[C@H]3[C@H](O)[C@@H]12` [Oxytetracyclin, reference compound], the MIC in assay [5] (DSM10) was determined as 16.6 µg/mL (≈ 36.1 µM).
For ES-242-9 [Compound 1], the “MIC (µg/mL)” value in [1], in assay [2], in assay [3], in assay [4], in assay [5] and in assay [6] was “-” in each case. The “MIC (µg/mL)” value in assay [7], in assay [8], in assay [9], in assay [10], in [11] and in assay [13] was “-” throughout. For the same molecule, the IC50 was 29.2 µM in [12] (setting [15]) and above 35 µM in [14]. In addition, the “Corrected mortality rate (%)” value was 33.4 ± 5.3% with Caenorhabditis elegans (setting [16]); 31.7 ± 7.1% with Caenorhabditis elegans (setting [17]); 51.1 ± 5.3% and 51.1% in the assay with Caenorhabditis elegans (setting [18]).
“HMDA-Trp-Ala-Phe (lariat or depsi) [Compound 2, Beauveriolide T]”: the “MIC (µg/mL)” value in assay [1], in [2], in [3], in [4], in assay [5] and in [6] was “-” throughout. Moreover, the “MIC (µg/mL)” value in assay [7], in [8], in [9], in [10], in assay [11] and in assay [13] was “-” in each case. The IC50 in assay [12] (setting [15]) and in [14] was above 35 µM throughout. For the same molecule, the “Corrected mortality rate (%)” value in the assay on Caenorhabditis elegans (setting [16]) was determined as 11.6 ± 6.4%; in the assay on Caenorhabditis elegans (setting [17]), 33.1 ± 6.7%; in the assay with Caenorhabditis elegans (setting [18]), 36.1 ± 7.3%.
In the case of Ivermectin [reference compound], in the assay with Caenorhabditis elegans (1 µg/mL, positive control, C. elegans, corrected mortality, mean ± SD), the “Corrected mortality rate (%)” value worked out at 87.4 ± 6.5%.

Source of the values: publication PMC11273930, “Bioactive Bioxanthracene and Cyclodepsipeptides from the Entomopathogenic Fungus Blackwellomyces roseostromatus BCC56290” (Antibiotics, 2024).
